What was measured:
[1] = target: T1, Replicase polyprotein 1ab (Severe acute respiratory syndrome coronavirus 2, UniProt P0DTD1)
[2] = Cytotoxicity against African green monkey Vero E6 cells incubated for 24 hrs by CCK8 assay; format: toxicity, cell-based, Vero C1008; conditions: chlorocebus sabaeus
[3] = target: Replicase polyprotein 1ab (Severe acute respiratory syndrome coronavirus 2) (UniProt P0DTD1); conditions: dose 31.25-1000 nM, time 100.0 sec
[4] = target: Replicase polyprotein 1ab (Severe acute respiratory syndrome coronavirus 2) (UniProt P0DTD1); conditions: dose 31.25-1000 nM, time 100.0 sec; remark: listed apart in the source
[5] = Tmax in ICR mouse at 20 mg/kg, po; format: ADME, organism-based; conditions: in vivo
[6] = Half-life in ICR mouse at 20 mg/kg, po; format: ADME, organism-based; conditions: in vivo
[7] = Cmax in ICR mouse at 20 mg/kg, po; format: ADME, organism-based; conditions: in vivo
[8] = AUC (0 to infinity) in ICR mouse at 20 mg/kg, po; format: ADME, organism-based; conditions: in vivo
[9] = AUClast in ICR mouse at 20 mg/kg, po; format: ADME, organism-based; conditions: in vivo
[10] = Observed MRT (0 to infinity) in ICR mouse at 20 mg/kg, po; format: ADME, organism-based; conditions: in vivo
[11] = target: T1, Replicase polyprotein 1ab; remark: listed apart in the source

Structure (SMILES) | IC50 [1] [nM] | other results
COc1ccc2[nH]c(=O)cc(C(=O)N[C@H]3CCCC[C@H]3Nc3c(C(=O)N4CCN(C)CC4)cc(Br)cc3[N+](=O)[O-])c2c1 | 18 | –
CNC(=O)c1cc(Br)cc([N+](=O)[O-])c1N[C@H]1CCC[C@H]1NC(=O)c1cc(=O)[nH]c2ccccc12 | 51.3 | –
O=C(NCC1CCCCC1)C1CN(c2ccc(Cl)c(Cl)c2)CCN1C(=O)c1cc(=O)[nH]c2ccccc12 (configuration not stated) | 440 | –
O=C(N[C@H]1CCCC[C@H]1Nc1c(C(=O)N2CCOCC2)cc(Br)cc1[N+](=O)[O-])c1cc(=O)[nH]c2cc(F)ccc12 | 38.7 | –
O=C(N[C@@H]1CCC[C@@H]1Nc1ccc(Cl)c(Cl)c1)c1cc(=O)[nH]c2ccccc12 | > 10000 | –
CNC(=O)c1cc(Br)cc([N+](=O)[O-])c1N[C@@H]1CCCC[C@@H]1NC(=O)c1cc(=O)[nH]c2c(F)cccc12 | 57 | CC50 at 24 h [2]: > 200000 nM; K [3]: 7.5 10^5/M/s; K [4]: 0.018 s⁻¹; Tmax [5]: 3 min; half-life [6]: 139 min; Cmax [7]: 63.6 ng/mL; AUC(0-inf) [8]: 58.2 ng·h/mL; AUC(0-t) [9]: 56.1 ng·h/mL; MRT inf [10]: 93.6 min; Kd [11]: 23.6 nM
O=C(NCC1CCO1)C1CN(c2ccc(Cl)c(Cl)c2)CCN1C(=O)c1cc(=O)[nH]c2ccccc12 (configuration not stated) | 310 | –
O=C(NCCN1CCOCC1)C1CN(c2ccc(Cl)c(Cl)c2)CCN1C(=O)c1cc(=O)[nH]c2ccccc12 (configuration not stated) | 840 | –
O=C(NCCC1CC1)C1CN(c2ccc(Cl)c(Cl)c2)CCN1C(=O)c1cc(=O)[nH]c2ccccc12 (configuration not stated) | 520 | –
O=C(N[C@H]1CCCC[C@H]1Nc1c(C(=O)N2CCOCC2)cc(Br)cc1[N+](=O)[O-])c1cc(=O)[nH]c2ccccc12 | 32.7 | CC50 at 24 h [2]: > 200000 nM
O=C(N[C@H]1CCC[C@H]1Nc1c(C(=O)N2CCOCC2)cc(C2CC2)cc1[N+](=O)[O-])c1cc(=O)[nH]c2ccccc12 | 23.5 | –
O=C1CC2CN(C(=O)C3CN(c4ccc(Cl)c(Cl)c4)CCN3C(=O)c3cc(=O)[nH]c4ccccc34)CC2C1 (configuration not stated) | 1850 | –
CCCCNC(=O)C1CN(c2ccc(Cl)c(Cl)c2)CCN1C(=O)c1cc(=O)[nH]c2ccccc12 (configuration not stated) | 580 | –
COc1ccc2[nH]c(=O)cc(C(=O)N[C@H]3CCCC[C@H]3Nc3c(C(=O)N4CCOCC4)cc(C4CC4)cc3[N+](=O)[O-])c2c1 | 10.6 | CC50 at 24 h [2]: > 200000 nM
CN1CCN(C(=O)c2cc(Br)cc([N+](=O)[O-])c2N[C@@H]2CCC[C@@H]2NC(=O)c2cc(=O)[nH]c3ccccc23)CC1 | 22.9 | –
O=C(NCCC(F)(F)F)[C@@H]1CN(c2ccc(Cl)c(Cl)c2)CCN1C(=O)c1cc(=O)[nH]c2ccccc12 | 150 | –
CC1(C)C2CN(C(=O)C3CN(c4ccc(Cl)c(Cl)c4)CCN3C(=O)c3cc(=O)[nH]c4ccccc34)CC21 (configuration not stated) | 4510 | –
O=C(c1cc(=O)[nH]c2ccccc12)N1CCN(c2ccc(Cl)c(Cl)c2)C[C@@H]1CC1CCCCC1 | > 20000 | –
COc1ccc2[nH]c(=O)cc(C(=O)N[C@H]3CCCC[C@H]3Nc3c(C(=O)N4CCOCC4)cc(Br)cc3[N+](=O)[O-])c2c1 | 29.2 | –
CN1CCN(C(=O)C2CN(c3ccc(Cl)c(Cl)c3)CCN2C(=O)c2cc(=O)[nH]c3ccccc23)CC1 (configuration not stated) | 1320 | –
O=C(N[C@H]1CCCC[C@H]1Nc1c(C(=O)N2CCOCC2)cc(Br)cc1[N+](=O)[O-])c1cc(=O)[nH]c2c(F)cccc12 | 26.9 | CC50 at 24 h [2]: > 200000 nM; K [3]: 5.4 10^5/M/s; K [4]: 0.01 s⁻¹; Tmax [5]: 15 min; half-life [6]: 48 min; Cmax [7]: 33.9 ng/mL; AUC(0-inf) [8]: 21.6 ng·h/mL; AUC(0-t) [9]: 21.2 ng·h/mL; MRT inf [10]: 39 min; Kd [11]: 19 nM
O=C(N[C@H]1CCCC[C@H]1Nc1c(C(=O)N2CCOCC2)cc(C2CC2)cc1[N+](=O)[O-])c1cc(=O)[nH]c2ccccc12 | 9.6 | CC50 at 24 h [2]: > 200000 nM
O=C(NCCC1CCCC1)C1CN(c2ccc(Cl)c(Cl)c2)CCN1C(=O)c1cc(=O)[nH]c2ccccc12 (configuration not stated) | 920 | –
O=C(C1CN(c2ccc(Cl)c(Cl)c2)CCN1C(=O)c1cc(=O)[nH]c2ccccc12)N1CC2(COC2)C1 (configuration not stated) | 2110 | –
CNC(=O)c1cc(Br)cc([N+](=O)[O-])c1NC1CCN(C(=O)c2cc(=O)[nH]c3ccccc23)C1 (configuration not stated) | 195 | –
CN1CCN(C(=O)c2cc(C3CC3)cc([N+](=O)[O-])c2N[C@@H]2CCC[C@@H]2NC(=O)c2cc(=O)[nH]c3ccccc23)CC1 | 24.9 | –
O=C(C1CN(c2ccc(Cl)c(Cl)c2)CCN1C(=O)c1cc(=O)[nH]c2ccccc12)N1CCOCC1 (configuration not stated) | 9470 | –
CN1CCN(C(=O)c2cc(C3CC3)cc([N+](=O)[O-])c2N[C@@H]2CCC[C@@H]2NC(=O)c2cc(=O)[nH]c3c(F)cccc23)CC1 | 28.5 | –

Structure (SMILES) | IC50 [1] [nM] | other results
O=C(NCC1CCC1)C1CN(c2ccc(Cl)c(Cl)c2)CCN1C(=O)c1cc(=O)[nH]c2ccccc12 (configuration not stated) | 300 | –
CNC(=O)c1cc(Br)cc([N+](=O)[O-])c1N[C@@H]1CCCC[C@@H]1NC(=O)c1cc(=O)[nH]c2ccc(F)cc12 | 58.2 | CC50 at 24 h [2]: > 200000 nM
CNC(=O)c1cc(C2CC2)cc([N+](=O)[O-])c1N[C@@H]1CCCC[C@@H]1NC(=O)c1cc(=O)[nH]c2ccccc12 | 20.7 | CC50 at 24 h [2]: > 200000 nM
CNC(=O)c1cc(Br)cc([N+](=O)[O-])c1N[C@@H]1CCCC[C@@H]1NC(=O)c1cc(=O)[nH]c2ccccc12 | 40.8 | CC50 at 24 h [2]: > 200000 nM; K [3]: 2.1 10^5/M/s; K [4]: 0.019 s⁻¹; Tmax [5]: 15 min; half-life [6]: 231 min; Cmax [7]: 11.3 ng/mL; AUC(0-inf) [8]: 29.9 ng·h/mL; AUC(0-t) [9]: 23.6 ng·h/mL; MRT inf [10]: 305 min; Kd [11]: 8.9 nM
O=C(N[C@H]1CCC[C@H]1Nc1c(C(=O)N2CCOCC2)cc(C2CC2)cc1[N+](=O)[O-])c1cc(=O)[nH]c2c(F)cccc12 | 21.3 | –
COc1ccc2[nH]c(=O)cc(C(=O)N[C@H]3CCC[C@H]3Nc3c(C(=O)N4CCOCC4)cc(C4CC4)cc3[N+](=O)[O-])c2c1 | 20.3 | –
O=C(c1cc(=O)[nH]c2ccccc12)N1CCN(c2ccc(Cl)c(Cl)c2)CC1Cc1ccccc1 (configuration not stated) | > 20000 | –
O=C(NCC1CCCC1)C1CN(c2ccc(Cl)c(Cl)c2)CCN1C(=O)c1cc(=O)[nH]c2ccccc12 (configuration not stated) | 280 | –
CNC(=O)c1cccc([N+](=O)[O-])c1N[C@@H]1CCCC[C@@H]1NC(=O)c1cc(=O)[nH]c2ccccc12 | 1240 | –
COc1ccc2[nH]c(=O)cc(C(=O)N[C@H]3CCC[C@H]3Nc3c(C(=O)N4CCN(C)CC4)cc(C4CC4)cc3[N+](=O)[O-])c2c1 | 24 | –
O=C(N[C@H]1CCC[C@H]1Nc1c(C(=O)N2CCOCC2)cc(Br)cc1[N+](=O)[O-])c1cc(=O)[nH]c2ccccc12 | 20.9 | –
CNC(=O)c1cc(Br)cc([N+](=O)[O-])c1N[C@@H]1CCCC[C@@H]1NC(=O)c1cc(=O)[nH]c2cc(F)ccc12 | 105 | –
O=C(NCCCC(F)(F)F)C1CN(c2ccc(Cl)c(Cl)c2)CCN1C(=O)c1cc(=O)[nH]c2ccccc12 (configuration not stated) | 200 | CC50 at 24 h [2]: 69400 nM
CN(CC1COCCO1)C(=O)C1CN(c2ccc(Cl)c(Cl)c2)CCN1C(=O)c1cc(=O)[nH]c2ccccc12 (configuration not stated) | 2610 | –
O=C(N[C@H]1CCC[C@H]1Nc1c(C(=O)N2CCOCC2)cc(Br)cc1[N+](=O)[O-])c1cc(=O)[nH]c2c(F)cccc12 | 36.5 | –
O=C(NCCCN1CCOCC1)C1CN(c2ccc(Cl)c(Cl)c2)CCN1C(=O)c1cc(=O)[nH]c2ccccc12 (configuration not stated) | 1340 | –
O=C(C1CN(c2ccc(Cl)c(Cl)c2)CCN1C(=O)c1cc(=O)[nH]c2ccccc12)N1CCC2(CC1)COC2 (configuration not stated) | 2220 | –
O=C1CCN(C(=O)C2CN(c3ccc(Cl)c(Cl)c3)CCN2C(=O)c2cc(=O)[nH]c3ccccc23)CC1 (configuration not stated) | 3310 | –
O=C1CC2(CCN(C(=O)C3CN(c4ccc(Cl)c(Cl)c4)CCN3C(=O)c3cc(=O)[nH]c4ccccc34)CC2)C1 (configuration not stated) | 1290 | –
O=C(NCCC1CCOCC1)C1CN(c2ccc(Cl)c(Cl)c2)CCN1C(=O)c1cc(=O)[nH]c2ccccc12 (configuration not stated) | 1140 | –
CN1CCN(C(=O)c2cc(Br)cc([N+](=O)[O-])c2N[C@@H]2CCC[C@@H]2NC(=O)c2cc(=O)[nH]c3c(F)cccc23)CC1 | 28.6 | –
O=C(NCCC(F)(F)F)C1CN(c2ccc(Cl)c(Cl)c2)CCN1C(=O)c1cc(=O)[nH]c2ccccc12 (configuration not stated) | 200 | CC50 at 24 h [2]: 50300 nM
O=C(NCC1CCCO1)C1CN(c2ccc(Cl)c(Cl)c2)CCN1C(=O)c1cc(=O)[nH]c2ccccc12 (configuration not stated) | 350 | –
O=C(NCCC(F)(F)F)[C@H]1CN(c2ccc(Cl)c(Cl)c2)CCN1C(=O)c1cc(=O)[nH]c2ccccc12 | 540 | –
O=C(c1cc(=O)[nH]c2ccccc12)N1CCC(Nc2ccc(Cl)c(Cl)c2)C1 (configuration not stated) | 8330 | –
O=C(NCC1CC1)C1CN(c2ccc(Cl)c(Cl)c2)CCN1C(=O)c1cc(=O)[nH]c2ccccc12 (configuration not stated) | 340 | –
O=C(N[C@H]1CCCC[C@H]1Nc1c(C(=O)N2CCOCC2)cc(C2CC2)cc1[N+](=O)[O-])c1cc(=O)[nH]c2c(F)cccc12 | 11.5 | –
